Active and inactive are the calls of the source. The rule behind the calls is not given here.
How the values were obtained:
[1] = molecular target: T1, Alkaline phosphatase, tissue-nonspecific isozyme (Homo sapiens) (UniProt P05186); assay: Inhibition of human serum containing 14% bone alkaline phosphatase using p-nitrophenyl phosphate as substrate at 8.7 x 10^-5 M up to 35 mins by spectrophotometry
T1 sequence (whole entry): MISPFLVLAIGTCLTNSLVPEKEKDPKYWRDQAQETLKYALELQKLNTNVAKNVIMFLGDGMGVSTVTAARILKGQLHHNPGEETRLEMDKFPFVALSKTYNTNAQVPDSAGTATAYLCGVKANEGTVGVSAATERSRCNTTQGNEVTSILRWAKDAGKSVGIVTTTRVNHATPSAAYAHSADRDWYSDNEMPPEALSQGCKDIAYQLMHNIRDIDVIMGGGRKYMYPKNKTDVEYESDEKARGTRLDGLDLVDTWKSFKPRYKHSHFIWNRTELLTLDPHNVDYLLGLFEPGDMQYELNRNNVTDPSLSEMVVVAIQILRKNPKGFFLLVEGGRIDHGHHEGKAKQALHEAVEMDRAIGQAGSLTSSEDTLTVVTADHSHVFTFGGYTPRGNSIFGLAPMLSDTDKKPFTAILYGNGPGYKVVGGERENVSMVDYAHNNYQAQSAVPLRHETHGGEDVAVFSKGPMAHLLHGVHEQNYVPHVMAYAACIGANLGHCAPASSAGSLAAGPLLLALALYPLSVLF

[2] = molecular target: T1, Alkaline phosphatase, tissue-nonspecific isozyme (Homo sapiens); assay: Inhibition of human serum containing 86% liver alkaline phosphatase using p-nitrophenyl phosphate as substrate at 8.7 x 10^-5 M up to 35 mins by spectrophotometry
[3] = molecular target: T1, Alkaline phosphatase, tissue-nonspecific isozyme (Homo sapiens); assay: Inhibition of human serum containing 64% liver alkaline phosphatase using p-nitrophenyl phosphate as substrate at 8.7 x 10^-5 M up to 35 mins by spectrophotometry
[4] = molecular target: T1, Alkaline phosphatase, tissue-nonspecific isozyme (Homo sapiens); assay: Inhibition of human serum containing 60% liver alkaline phosphatase using p-nitrophenyl phosphate as substrate at 8.7 x 10^-5 M up to 35 mins by spectrophotometry
[5] = molecular target: T2, Alkaline phosphatase, tissue-nonspecific isozyme (Bos taurus) (UniProt P09487); assay: Inhibition of bovine liver alkaline phosphatase using p-nitrophenyl phosphate as substrate at 8.7 x 10^-5 M up to 35 mins by spectrophotometry
T2 sequence (whole entry): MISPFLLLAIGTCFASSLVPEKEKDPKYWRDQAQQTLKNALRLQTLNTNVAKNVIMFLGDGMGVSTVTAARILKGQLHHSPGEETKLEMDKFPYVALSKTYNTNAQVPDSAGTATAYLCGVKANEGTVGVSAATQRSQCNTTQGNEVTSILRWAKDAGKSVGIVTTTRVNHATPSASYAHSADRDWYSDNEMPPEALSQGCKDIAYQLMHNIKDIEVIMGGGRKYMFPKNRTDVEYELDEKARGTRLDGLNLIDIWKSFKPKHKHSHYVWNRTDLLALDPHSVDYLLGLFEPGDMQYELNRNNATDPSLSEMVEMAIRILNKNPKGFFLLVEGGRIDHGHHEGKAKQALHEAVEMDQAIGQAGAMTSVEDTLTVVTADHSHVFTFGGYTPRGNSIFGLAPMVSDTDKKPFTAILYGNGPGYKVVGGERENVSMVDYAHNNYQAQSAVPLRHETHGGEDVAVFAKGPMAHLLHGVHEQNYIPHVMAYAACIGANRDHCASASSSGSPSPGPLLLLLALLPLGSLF

[6] = species on record: Bos taurus; assay: Inhibition of bovine placenta alkaline phosphatase using p-nitrophenyl phosphate as substrate at 8.7 x 10^-5 M up to 35 mins by spectrophotometry
[7] = molecular target: Intestinal-type alkaline phosphatase (Homo sapiens) (UniProt P09923); assay: Inhibition of human serum containing 26% intestine alkaline phosphatase using p-nitrophenyl phosphate as substrate at 8.7 x 10^-5 M up to 35 mins by spectrophotometry
Sequence of Intestinal-type alkaline phosphatase (Homo sapiens) (P09923 20-503 limits assumed): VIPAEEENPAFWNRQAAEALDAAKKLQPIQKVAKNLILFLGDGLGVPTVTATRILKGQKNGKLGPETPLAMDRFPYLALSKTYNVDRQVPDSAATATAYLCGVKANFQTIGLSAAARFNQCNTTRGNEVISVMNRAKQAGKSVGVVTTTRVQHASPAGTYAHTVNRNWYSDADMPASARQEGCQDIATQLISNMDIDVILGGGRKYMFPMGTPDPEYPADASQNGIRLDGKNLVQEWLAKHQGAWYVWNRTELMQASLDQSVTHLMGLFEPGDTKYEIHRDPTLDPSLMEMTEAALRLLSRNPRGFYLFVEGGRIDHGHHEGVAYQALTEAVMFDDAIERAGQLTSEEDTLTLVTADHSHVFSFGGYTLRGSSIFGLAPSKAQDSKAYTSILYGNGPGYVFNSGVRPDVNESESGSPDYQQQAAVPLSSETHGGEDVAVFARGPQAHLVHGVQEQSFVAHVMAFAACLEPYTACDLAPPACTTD

[8] = molecular target: T1, Alkaline phosphatase, tissue-nonspecific isozyme (Homo sapiens); assay: Inhibition of human serum containing 40% bone alkaline phosphatase using p-nitrophenyl phosphate as substrate at 8.7 x 10^-5 M up to 35 mins by spectrophotometry
[9] = molecular target: T1, Alkaline phosphatase, tissue-nonspecific isozyme (Homo sapiens); assay: Inhibition of human serum containing 8% liver alkaline phosphatase using p-nitrophenyl phosphate as substrate at 8.7 x 10^-5 M up to 35 mins by spectrophotometry
[10] = molecular target: T1, Alkaline phosphatase, tissue-nonspecific isozyme (Homo sapiens); assay: Inhibition of human serum containing 10% bone alkaline phosphatase using p-nitrophenyl phosphate as substrate at 8.7 x 10^-5 M up to 35 mins by spectrophotometry
[11] = molecular target: Intestinal-type alkaline phosphatase (Bos taurus) (UniProt P19111); assay: Inhibition of calf intestine alkaline phosphatase using p-nitrophenyl phosphate as substrate at 8.7 x 10^-5 M up to 35 mins by spectrophotometry
Sequence of Intestinal-type alkaline phosphatase (Bos taurus) (P19111 20-506 limits assumed): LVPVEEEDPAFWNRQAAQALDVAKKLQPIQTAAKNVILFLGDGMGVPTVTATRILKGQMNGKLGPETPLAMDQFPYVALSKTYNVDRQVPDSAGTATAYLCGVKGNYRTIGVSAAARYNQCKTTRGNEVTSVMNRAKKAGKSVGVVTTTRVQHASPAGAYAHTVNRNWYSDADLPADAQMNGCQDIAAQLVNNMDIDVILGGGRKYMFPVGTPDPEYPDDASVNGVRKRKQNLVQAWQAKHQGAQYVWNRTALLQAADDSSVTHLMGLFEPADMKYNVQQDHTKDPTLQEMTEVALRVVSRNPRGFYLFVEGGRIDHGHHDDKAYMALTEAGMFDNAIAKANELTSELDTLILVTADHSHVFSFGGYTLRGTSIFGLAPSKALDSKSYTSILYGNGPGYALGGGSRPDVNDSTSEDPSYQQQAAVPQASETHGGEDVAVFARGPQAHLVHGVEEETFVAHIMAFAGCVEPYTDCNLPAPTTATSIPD

[12] = molecular target: Alkaline phosphatase, placental type (Homo sapiens) (UniProt P05187); assay: Inhibition of human placenta alkaline phosphatase using p-nitrophenyl phosphate as substrate at 8.7 x 10^-5 M up to 35 mins by spectrophotometry
Sequence of Alkaline phosphatase, placental type (Homo sapiens) (P05187 whole entry): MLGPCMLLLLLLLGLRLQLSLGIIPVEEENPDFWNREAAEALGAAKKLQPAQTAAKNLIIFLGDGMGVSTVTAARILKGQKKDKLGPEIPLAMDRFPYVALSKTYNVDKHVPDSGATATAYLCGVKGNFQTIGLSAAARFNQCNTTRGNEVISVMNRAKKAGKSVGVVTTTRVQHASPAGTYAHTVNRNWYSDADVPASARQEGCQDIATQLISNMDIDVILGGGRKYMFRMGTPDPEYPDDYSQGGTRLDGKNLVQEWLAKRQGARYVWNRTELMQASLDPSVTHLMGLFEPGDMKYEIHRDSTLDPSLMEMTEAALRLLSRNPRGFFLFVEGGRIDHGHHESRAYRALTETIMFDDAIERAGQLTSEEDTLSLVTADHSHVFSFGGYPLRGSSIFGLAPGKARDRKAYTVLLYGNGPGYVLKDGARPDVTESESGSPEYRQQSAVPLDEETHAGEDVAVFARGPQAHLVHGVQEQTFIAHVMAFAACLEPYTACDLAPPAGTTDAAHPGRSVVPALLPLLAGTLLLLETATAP

[13] = molecular target: T1, Alkaline phosphatase, tissue-nonspecific isozyme (Homo sapiens); assay: Inhibition of human serum containing 92% liver alkaline phosphatase using p-nitrophenyl phosphate as substrate at 8.7 x 10^-5 M up to 35 mins by spectrophotometry

Row | SMILES | inhibition [1] | inhibition [2] | inhibition [3] | inhibition [4] | inhibition [5] | inhibition [6] | inhibition [7] | inhibition [8] | inhibition [9] | inhibition [10] | inhibition [11] | inhibition [12] | inhibition [13]
1 | c1ccc([C@@H]2CN3CCSC3=N2)cc1 (stereo in doubt; (+)) | inactive | inactive | inactive | inactive | inactive | inactive | inactive | inactive | inactive | inactive | inactive | inactive | inactive
2 | c1ccc([C@@H]2CN3CC[Se]C3=N2)cc1 | inactive | inactive | inactive | inactive | inactive | inactive | inactive | inactive | inactive | inactive | inactive | inactive | inactive
3 | c1ccc([C@@H]2CN3CCSC3=N2)cc1 (stereo in doubt; (-)) | 56% | 56% | 65% | 71% | 67% | 75% | 65% | 71% | 76% | 65% | 10% | 0% | 76%
4 | c1ccc([C@H]2CN3CC[Se]C3=N2)cc1 | 63% | 63% | 70% | 78% | 76% | 78% | 70% | 78% | 80% | 70% | 10% | 0% | 80%
